Laboratory results from article PMC8410672 (Chemistry (Weinheim an der Bergstrasse, Germany), 2021).

How the values were obtained:
[1] = system: P. aeruginosa (Schroeter) Migula (ATCC 27853); assay: P. aeruginosa-induced bacterial peritonitis model; format: in vivo, Balb/c mice; conditions: 15 mg/kg i.p. single dose, n=10, 7 days, p <0.001
[2] = system: clinical isolates of P. aeruginosa; assay: MIC against clinical isolates from cystic fibrosis patients; format: cell-based; conditions: n=20 clinical isolates, CAMHB
Balb/c mice = assay: toxicity profile in mice, intraperitoneal; format: in vivo, mouse; conditions: Balb/c mice n=3, i.p.; very mild toxicity after 1 h, recovered after 24 h
[3] = system: clinical isolates of methicillin-resistant S. aureus; assay: MIC against clinical isolates from cystic fibrosis patients; format: cell-based; conditions: n=20 methicillin-resistant clinical isolates; CAMHB

Row | Compound | survival hazard ratio [HR] [1] | P. aeruginosa MIC50 ([2]; 30% MDR) | P. aeruginosa MIC90 [2] | well tolerated intraperitoneal dose (MTD) (Balb/c mice) | S. aureus MICrange [3]
1 | Colistin | 0.040 | ≤ 0.2 µM | 0.4 µM | 15 mg/kg | –
2 | CN[C@H](CC(C)C)C(=O)N[C@H]1C(=O)N[C@@H](CC(N)=O)C(=O)N[C@H]2C(=O)N[C@H]3C(=O)N[C@H](C(=O)N[C@H](C(=O)O)c4cc(O)cc(O)c4-c4cc3ccc4O)[C@H](O)c3ccc(c(Cl)c3)Oc3cc2cc(c3O[C@@H]2O[C@H](CO)[C@@H](O)[C@H](O)[C@H]2O[C@H]2C[C@](C)(N)[C@H](O)[C@H](C)O2)Oc2ccc(cc2Cl)[C@H]1O [Vancomycin] | – | – | – | – | 0.5 to 1.4 µM
